Assay results: patent EP0685467A1, “NOVEL PYRIMIDINE DERIVATIVE AND MEDICINAL COMPOSITION” (NKK CORPORATION, priority 1993, dated 1995)

Experiments:
[1] = tested on: ICR male and female mice; test: Toxicity Example: oral administration to mice; type: in vivo; conditions: orally, 1000 mg/kg, 6-week-old ICR male and female mice
Experimental: The compounds of Examples 15, 19, or 47 were orally administered to 6-week-old ICR male and female mice in an amount of 1000 mg/kg.

[2] = tested on: rat aorta; test: Inhibitory activity of vasoconstriction: angiotensin II induced constriction of rat aorta rings (Magnus apparatus); type: cell-based; conditions: constriction induced by 3 x 10⁻⁸ angiotensin II
Experimental: The applicability of the compound of the present invention was confirmed by the function to inhibit constriction of rat aorta induced by angiotensin II.
Stetharteries of Wistar male rats having body weights of 150 to 250 g (Japan Charles River Inc.) were excised. After the attached connective tissue was removed, the cavities of the veins were rubbed by yarn to remove the endothelial cells and prepare ring samples. The samples were suspended in a 5ml organ bath which was filled with Krebs-Henseleit solution (unit mM; NaCl = 118, KCl = 4.7, CaCl₂ = 2.55, MgSO₄ = 1.18, KH₂PO₄ = 1.18, NaHCO₃ = 24.88, glucose = 11.1) and held at 37°C and bubbled with 95% O₂-5% CO₂. After an initial tension of 1.5 g was applied and preincubation was carried out for 60 minutes, the compounds to be tested (3 x 10⁻⁸ or 1 x 10⁻⁸) were administered. After 15 minutes, 3 x 10⁻⁸ angiotensin II was accumulatively added and the reaction of constriction was measured. The rate of inhibition was evaluated by comparing the reaction of constriction, which had been previously measured, in the case of administration of 3 x 10⁻⁸ angiotensin II in the absence of the compounds to be tested.
The constriction of the samples was ionotropicaly measured using an isometric transducer (UL-10GR: Minebea) and amplifier (6M92: NEC SANEI) and recorded by a recticorder (RECTI-HORIZ-8K: NEC SANEI).

[3] = tested on: ICR male mice; test: Toxicity Example: intraperitoneal administration to mice; type: in vivo; conditions: intraperitoneally, 500 mg/kg, 4- to 5-week-old ICR male mice
Experimental: The compounds of Examples 3, 19, 20, or 23 were intraperitoneally administered to 4- to 5-week-old ICR male mice in an amount of 500 mg/kg.

Structure (SMILES)	deaths [1]	Rate of inhibition (%) ([2]; compound 1 x 10⁻⁸ M)	Rate of inhibition (%) ([2]; compound 3 x 10⁻⁸ M)	deaths [3]
CCc1nc(C)nc(OCc2ccc(-c3ccccc3-c3nnn[nH]3)cc2)c1Cc1cccc(CO)c1 [Example 47, 6-ethyl-5-(3-hydroxymethylbenzyl)-2-methyl-4-[2'-(1H-tetrazol-5-yl)biphenyl-4-yl]methoxypyrimidine]	No deaths were observed			
CCCc1nc(C)c(Cc2cccc(CO)c2)c(=O)n1Cc1ccc(-c2ccccc2-c2nnn[nH]2)cc1 [Example 19, 5-(3-hydroxymethylbenzyl)-6-methyl-2-propyl-3-[2'-(1H-tetrazol-5-yl)biphenyl-4-yl]methylpyrimidin-4-one]	No deaths were observed	100	100	No deaths were observed
CCCCc1nc(C)cc(=O)n1Cc1ccc(-c2ccccc2-c2nnn[nH]2)cc1 [Comparative compound A, 2-butyl-6-methyl-3-[2'-(1H-tetrazol-5-yl)biphenyl-4-yl]methylpyrimidin-4-one, reference compound]		8	37	
CCc1nc(C)c(Cc2cccc(CO)c2)c(OCc2ccc(-c3ccccc3-c3nnn[nH]3)cc2)n1 [Example 15, 2-ethyl-5-(3-hydroxymethylbenzyl)-6-methyl-4-[2'-(1H-tetrazol-5-yl)biphenyl-4-yl]methoxypyrimidine]	No deaths were observed			
CCCc1nc(C)c(Cc2cccc(COC)c2)c(=O)n1Cc1ccc(-c2ccccc2-c2nnn[nH]2)cc1 [Example 20, 5-(3-methoxymethylbenzyl)-6-methyl-2-propyl-3-[2'-(1H-tetrazol-5-yl)biphenyl-4-yl]methylpyrimidin-4-one]		100	100	No deaths were observed
CCCc1nc(C)c(Cc2ccc(CO)cc2)c(=O)n1Cc1ccc(-c2ccccc2-c2nnn[nH]2)cc1 [Example 3, 5-(4-hydroxymethylbenzyl)-6-methyl-2-propyl-3-[2'-(1H-tetrazol-5-yl)biphenyl-4-yl]methylpyrimidin-4-one]		78	98	No deaths were observed
CCCc1nc(C)c(Cc2ccc(COC)cc2)c(=O)n1Cc1ccc(-c2ccccc2-c2nnn[nH]2)cc1 [Example 4, 5-(4-methoxymethylbenzyl)-6-methyl-2-propyl-3-[2'-(1H-tetrazol-5-yl)biphenyl-4-yl]methylpyrimidin-4-one]		36	94	
CCCCc1nc(C)c(Cc2cccc(CO)c2)c(=O)n1Cc1ccc(-c2ccccc2-c2nnn[nH]2)cc1 [Example 23, 2-butyl-5-(3-hydroxymethylbenzyl)-6-methyl-3-[2'-(1H-tetrazol-5-yl)biphenyl-4-yl]methylpyrimidin-4-one]		95	100	No deaths were observed
CCCCc1nc(C)c(Cc2ccccc2)c(=O)n1Cc1ccc(-c2ccccc2-c2nnn[nH]2)cc1 [Comparative compound B, 5-benzyl-2-butyl-6-methyl-3-[2'-(1H-tetrazol-5-yl)biphenyl-4-yl]methylpyrimidin-4-one, reference compound]		5	32	
